Consider 17 compounds from patent publication US20240327429A1, “[1,3]Thiazolo[4,5-d]-pyrimidon-7-ones as inhibitors of NOX4” (Boehringer Ingelheim International GmbH, priority 2023, published 2024).

Bounds are passed on as bounds.

As usually defined, the IC50 is the point on the concentration scale where inhibition reaches its midpoint. Lower therefore signals inhibition by little substance.

One data set deals with human hepatocytes. Briefly: Evaluation of hepatocyte clearance (metabolic stability). The data set is classed as in vitro ADME. The conditions noted are these: 1 μM test compound, 5% human serum, Table 3. In outline: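 Cryopreserved human hepatocytes (typically 1 Mio cells/mL) in supplemented DMEM with 5% human serum incubated with 1 μM compound (0.05% DMSO) at 37° C, sampled to 6 hours. Parent decline by HPLC-MS/MS; CLint = Dose/AUC, scaled to in vivo blood CL via well-stirred model.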

Another data set addresses T1, human NOX4 (hNOX4) (Homo sapiens, UniProt Q9NPH5).
T1 sequence (Q9NPH5 1-578): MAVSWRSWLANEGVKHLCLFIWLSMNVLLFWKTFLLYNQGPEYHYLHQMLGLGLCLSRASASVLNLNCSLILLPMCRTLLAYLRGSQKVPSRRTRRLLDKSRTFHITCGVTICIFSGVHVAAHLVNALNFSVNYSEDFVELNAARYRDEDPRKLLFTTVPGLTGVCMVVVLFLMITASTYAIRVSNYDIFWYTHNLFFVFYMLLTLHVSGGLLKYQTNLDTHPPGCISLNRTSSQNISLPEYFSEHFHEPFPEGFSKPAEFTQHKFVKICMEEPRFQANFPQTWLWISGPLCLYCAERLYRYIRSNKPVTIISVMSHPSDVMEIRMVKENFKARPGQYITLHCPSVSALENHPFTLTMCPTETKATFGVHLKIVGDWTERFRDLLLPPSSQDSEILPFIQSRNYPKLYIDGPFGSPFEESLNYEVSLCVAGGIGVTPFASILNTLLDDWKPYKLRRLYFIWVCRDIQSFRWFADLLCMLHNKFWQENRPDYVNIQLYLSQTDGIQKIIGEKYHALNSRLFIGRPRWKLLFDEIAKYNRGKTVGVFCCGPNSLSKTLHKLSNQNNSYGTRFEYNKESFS
T1 sequence (P13498 2-195 partner limits assumed): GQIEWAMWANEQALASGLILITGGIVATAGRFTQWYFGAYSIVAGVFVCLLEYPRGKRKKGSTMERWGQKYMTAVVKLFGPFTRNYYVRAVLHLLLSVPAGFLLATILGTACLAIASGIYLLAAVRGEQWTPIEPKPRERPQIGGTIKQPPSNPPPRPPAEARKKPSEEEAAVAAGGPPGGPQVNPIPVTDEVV
Briefly: cell-based.

Another data set addresses T2, human NOX5 (hNOX5) (Homo sapiens, UniProt Q96PH1).
T2 construct: expressed in transfected cells; host or cells: HEK293
T2 sequence (Q96PH1 1-765): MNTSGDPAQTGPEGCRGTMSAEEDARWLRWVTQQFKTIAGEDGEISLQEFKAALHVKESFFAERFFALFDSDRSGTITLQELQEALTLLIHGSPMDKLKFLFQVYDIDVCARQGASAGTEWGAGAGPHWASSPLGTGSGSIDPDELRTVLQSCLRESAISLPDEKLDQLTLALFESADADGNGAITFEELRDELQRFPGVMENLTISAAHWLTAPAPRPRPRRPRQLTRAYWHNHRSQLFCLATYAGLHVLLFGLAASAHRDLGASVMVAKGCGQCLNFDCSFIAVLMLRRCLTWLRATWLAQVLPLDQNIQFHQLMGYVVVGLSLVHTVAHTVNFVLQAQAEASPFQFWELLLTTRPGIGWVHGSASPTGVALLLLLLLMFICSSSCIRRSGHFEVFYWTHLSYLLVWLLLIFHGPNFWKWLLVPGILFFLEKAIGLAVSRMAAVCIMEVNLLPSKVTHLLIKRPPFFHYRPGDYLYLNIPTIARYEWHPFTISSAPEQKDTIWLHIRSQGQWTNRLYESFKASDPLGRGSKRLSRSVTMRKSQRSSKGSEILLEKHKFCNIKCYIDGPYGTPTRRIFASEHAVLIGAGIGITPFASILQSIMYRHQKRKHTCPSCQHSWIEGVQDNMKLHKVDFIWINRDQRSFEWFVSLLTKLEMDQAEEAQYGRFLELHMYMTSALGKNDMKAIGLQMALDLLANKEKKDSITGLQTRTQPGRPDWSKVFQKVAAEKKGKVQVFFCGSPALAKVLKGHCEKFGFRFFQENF
In words: NOX5 inhibition assay (L-012), HEK293 cells stably overexpressing human NOX5. The conditions noted are these: HEK293-hNOX5, PMA stimulated. The data set is classed as cell-based. Here is the method:
The synthetic gene hNOX5 (Accession: Q96PH1) is cloned into pcDNA3.1_Zeo. […] The final construct is verified by sequencing.
Evaluation of the NOX4 inhibitors on NOX5 activity is assessed in HEK293 cells stably overexpressing human NOX5 (hNOX5).
Cells are seeded in 384 well plates over-night. […] Cells are then stimulated with PMA at 0.1 μM to induce NOX5-dependent ROS production. […] Luminescence is measured with an PHERAstar multimode reader.

As for `O=c1c2scnc2nc(SCc2ccc(C(F)(F)F)cc2)n1-c1ccc(O)nn1` [Example 66], the “Qh [%]” value in the data set with human hepatocytes is given as 40%. Besides, the IC50 against human NOX4 (hNOX4) was found to be 0.137 µM; against human NOX5 (hNOX5), 74.8 µM.
Take `Cc1cc(Cl)ccc1CSc1nc2ncsc2c(=O)n1-c1ccc(O)nc1` [Example 23]: the “Qh [%]” value in the data set with human hepatocytes amounted to 55%. In addition, the IC50 was 0.096 µM at human NOX4 (hNOX4) and over 100 µM on human NOX5 (hNOX5).
The matching figures for `O=c1c2scnc2nc(SCc2ccc(F)cc2)n1-c1ccc(O)nc1` [Example 30]: 22%, 0.539 µM and 94.8 µM.
Regarding `O=c1c2scnc2nc(SCc2c(F)cc(F)cc2F)n1-c1cnc(O)cn1` [Example 69, 6-(5-Hydroxypyrazin-2-yl)-5-((2,4,6-trifluorobenzyl)thio)thiazolo[4,5-d]pyrimidin-7(6H)-one], the “Qh [%]” value in the data set on human hepatocytes was under 4%. Moreover, the IC50 is 0.065 µM on human NOX4 (hNOX4) and over 100 µM on human NOX5 (hNOX5).
The matching figures for `O=c1c2scnc2nc(SCc2ccc(Cl)cc2)n1-c1cc(F)c(O)c(F)c1` [Example 5]: 56%, 0.024 µM and over 100 µM.
The matching figures for `O=c1c2scnc2nc(SCc2ccc(C(F)(F)F)cc2)n1-c1cnc(O)nc1` [Example 60]: 8%, 0.237 µM and over 100 µM.
In the same order, the values of `Cc1cc(F)cc(C)c1CSc1nc2ncsc2c(=O)n1-c1cnc(O)c(F)c1` [Example 43] are 37%, 0.063 µM and over 100 µM.
On to `O=c1c2scnc2nc(SCc2ccc(C(F)(F)F)cc2Cl)n1-c1cnc(O)c(F)c1` [Example 46], for which the “Qh [%]” value in the data set with human hepatocytes is recorded as 21%. The IC50 against human NOX4 (hNOX4) came to 0.13 µM; against human NOX5 (hNOX5), 44.7 µM.
As to `Cc1cc(F)ccc1CSc1nc2ncsc2c(=O)n1-c1cc(F)c(O)c(F)c1` [Example 9], the “Qh [%]” value in the data set with human hepatocytes worked out at 65%. Also, the values for the IC50 on human NOX4 (hNOX4) and on human NOX5 (hNOX5) were 0.029 µM and over 100 µM, respectively.
The matching figures for `O=c1c2scnc2nc(SCc2c(F)cc(F)cc2F)n1-c1cnc(O)nc1` [Example 59]: under 4%, 0.206 µM and over 100 µM.
In the case of `O=c1c2scnc2nc(SCc2c(F)cc(F)cc2F)n1-c1cnc(O)cc1F` [Example 49, 6-(4-Fluoro-6-hydroxypyridin-3-yl)-5-((2,4,6-trifluorobenzyl)thio)thiazolo[4,5-d]pyrimidin-7(6H)-one], in the data set with human hepatocytes, the “Qh [%]” value was found to be 25%. Moreover, the IC50 against human NOX4 (hNOX4) was 0.045 µM; against human NOX5 (hNOX5) it was over 100 µM.
`O=c1c2scnc2nc(SCc2ccc(Cl)cc2F)n1-c1cnc(O)c(F)c1` [Example 35]: the “Qh [%]” value in the data set on human hepatocytes came to 15%. The values for the IC50 against human NOX4 (hNOX4) and against human NOX5 (hNOX5) were 0.033 µM and 65.5 µM, respectively.
In the same order, the values of `O=c1c2scnc2nc(SCc2c(F)cc(F)cc2F)n1-c1cnc(O)c(Cl)c1` [Example 48, 6-(5-Chloro-6-hydroxypyridin-3-yl)-5-((2,4,6-trifluorobenzyl)thio)thiazolo[4,5-d]pyri-midin-7(6H)-one] are 22%, 0.201 µM and over 100 µM.
Consider `O=c1c2scnc2nc(SCc2c(F)cc(F)cc2F)n1-c1cnc(O)c(F)c1` [Example 31, 6-(5-Fluoro-6-hydroxypyridin-3-yl)-5-((2,4,6-trifluorobenzyl)thio)thiazolo[4,5-d]-pyrimidin-7(6H)-one], for which the “Qh [%]” value with human hepatocytes is on record as 14%. In addition, the IC50 is 0.06 µM against human NOX4 (hNOX4) and over 100 µM against human NOX5 (hNOX5).
With `Cc1cc(F)ccc1CSc1nc2ncsc2c(=O)n1-c1cnc(O)nc1` [Example 58], the “Qh [%]” value in the data set with human hepatocytes was 19%. Moreover, the IC50 was 0.14 µM on human NOX4 (hNOX4) and over 100 µM at human NOX5 (hNOX5).
For `O=c1c2scnc2nc(SCc2ccc(F)cc2F)n1-c1cnc(O)c(F)c1` [Example 38], in the data set with human hepatocytes, the “Qh [%]” value came to 11%. The IC50 was 0.048 µM at human NOX4 (hNOX4) and over 100 µM on human NOX5 (hNOX5).
`Cc1cc(F)ccc1CSc1nc2ncsc2c(=O)n1-c1cnc(O)c(F)c1` [Example 36]: the “Qh [%]” value with human hepatocytes is listed as 34%. Further, the results for the IC50 against human NOX4 (hNOX4) and at human NOX5 (hNOX5) were 0.034 µM and over 100 µM, respectively.
